Measurements published in patent US20250352555A1, “METHOD OF INCREASING IMMUNE CELL ACTIVATION AND/OR TREATING CANCER USING DIBENZOXAZEPINONES” (VASCULAR THERAPEUTICS PTY LTD, priority 2022, published 2025).

Legend:
[1] = system: p-ERK; assay: Immunohistochemistry of MDA-MB-435 tumors, p-ERK; assay type: in vivo, mouse; settings: SCID mice, 20 mg/kg i.t.
Source text: (§1) Immunohistochemical staining and analyses. Rabbit monoclonal anti-CD3 (cat. no. ab16669; mouse, rat and human reactive), rabbit monoclonal anti-PD-1 (cat. no. ab214421), rabbit monoclonal anti-CD68 (cat. no. ab125212) antibodies were obtained from Abcam, rabbit monoclonal anti-phospho-ERK (Thr^202/Tyr^204) (cat. no. CST4370), rabbit monoclonal total ERK (cat. no. CST4695), antibodies were obtained from Cell Signaling Technology. Rabbit polyclonal anti-PD-L1 (cat. no. PA5-20343) antibody was obtained from ThermoFisher.
(§2) Formalin fixed, paraffin embedded sections were prepared from tumors. Heat-induced epitope retrieval was applied to all deparaffinized sections (4 μm sections on Superfrost slides) with citrate buffer, pH 6.0 for 5 min at 110° C. Sections were blocked with Dual Endogenous Enzyme Block (DAKO, S2003) for 10 min and then with 2% skim milk for 20 min. Slides were incubated with primary antibody for 60 min at room temperature or overnight at 4° C. and then for 10 min with probe of MACH3 Rabbit AP-Polymer Detection solution (Biocare Medical, M3R533 G, H, L). […] Integrated optical density (IOD) or area of positive staining (red chromagen) was assessed using Image-Pro Plus software (Cybernetics, Bethesda, MD, USA). Positive staining was the average of quantitation in 4-8 fields of view under 20× or 40× objectives.

[2] = system: CD3; assay: Immunohistochemistry of B16F10 tumors (Day 17), CD3; assay type: in vivo, mouse; settings: B16F10 tumors Day 17, 200 mg/kg i.p.
Source text: as §1
as §2, with “objectives. […]” for “objectives.”

[3] = system: PD-1; assay: Immunohistochemistry of B16F10 tumors (Day 17), PD-1; assay type: in vivo, mouse; settings: B16F10 tumors Day 17, 200 mg/kg i.p., vs vehicle
Source text: as §1
as §2, with “objectives. […]” for “objectives.”

[4] = system: p38; assay: Western blotting time course for p38 phosphorylation, Jurkat T cells; assay type: cell-based, human; settings: Western blot time course
Experimental: Western blotting. Cells were treated with compounds and times indicated and total cell lysates were prepared in RIPA buffer. Lysates (10 μg) were resolved by SDS-PAGE and transferred to Immobilon-P polyvinylidene difluoride (PVDF) membranes (Millipore, USA).
Membranes were blocked with 5% skim milk and incubated with rabbit monoclonal anti-c-Jun (Abcam, cat. no. ab32137; mouse, rat and human reactive) antibody, rabbit monoclonal anti-PD-1 (Abcam, cat. no. ab214421) antibody, mouse monoclonal β-actin antibody (Sigma-Aldrich, cat. no. A5316), anti-phospho-SAPK/JNK (Thr^183/Tyr^185) (98F2) (CST, cat. no. 4671) antibody, anti-phospho-p44/42 MAPK (ERK1/2) (Thr^202/Tyr^204) (D13.14.4E) (CST, cat. no. 4370) antibody, anti-phospho-p38 MAPK (Thr^180/Tyr^182) (D3F9) (CST, cat. no. 4511) antibody, anti-SAPK/JNK antibody (CST, cat. no. 9252), anti-p44/42 MAPK (ERK1/2) (137F5) antibody (CST, cat. no. 4695), anti-p38 MAPK antibody (CST, cat. no. 9212), anti-DUSP8 antibody (Abcam, cat. no. ab198175) or anti-c-MAF (BLR045F) antibody (Abcam, cat. no. ab243901). […] Chemiluminescence was detected using the Western Lightning Chemiluminescence system (Thermo Scientific, USA) and ImageQuant™ LAS 4000 biomolecular imager (GE Healthcare Life Sciences, USA). Band intensity in images generated with the LAS 4000 was quantified using NIH Image J. […]

## CCOC(=O)Nc1ccc2c(c1)C(=O)N(CC)c1ccccc1O2 [BT2, (10-ethyl-11-oxo-10,11-dihydro-dibenzo[b,f][1,4]oxazepin-2-yl)-carbamic acid ethyl ester]
[1]
  ERK phosphorylation in the tumors (IHC): suppression of ERK phosphorylation
[2]
  CD3+ staining in the tumor periphery (within 250 μm) (IHC): stimulated CD3^+ staining in the tumor periphery
[3]
  PD-1 levels in tumors (IHC): reduced
[4]
  levels of p38 phosphorylation: no effect
